This is an account of results in patent US11045465B2, “Methods and compositions to prevent addiction” (FLORIDA STATE UNIVERSITY RESEARCH FOUNDATION, INC., priority 2009, dated 2021).

Structures are written as SMILES. Entries after “also recorded” stand apart in the source; their conditions may differ.

The subject of one data set is KOPR. Particulars: 2.5 mg/kg; s.c. (Xia et al., 2007); cited from earlier work.
The target in data set [1] is T1, μ opioid receptor (MOPR) (Mus musculus, UniProt P42866).
T1 construct: The caudate-putamen and nucleus accumbens were microdissected and the tissue was homogenized; from tissue; host or cells: mouse brain: caudate-putamen and nucleus accumbens membrane preparations
Kind of data set: DAMGO concentration-dependent [35S]GTPγS binding in caudate-putamen and nucleus accumbens membrane preparations. The class given is biochemical, mice. The method, then:
(§1) MOPR activity was assayed by using [^35S]GTPγS binding on membrane preparations using a modification of the previously described method^23. The mice were sacrificed by cervical dislocation and the brain was dissected rapidly. The caudate-putamen and nucleus accumbens were microdissected and the tissue was homogenized using teflon pistol in Eppendorf tubes (10 strokes) in 300 μl of homogenization buffer containing 25 mM Tris/pH7.4, 5 mM EDTA and 0.1 mM PMSF and kept on ice. Homogenate was diluted to 2.5 ml using the homogenization buffer and centrifuged at ˜350,000 g for 30 min. After washing 3 times with 50 mM Tris-HCl/pH7.4, the pellets were re-suspended in 50 mM Tris-HCl/pH7.4 containing 0.32 M sucrose, passed through a 26.5 G needle for 3 times, frozen in dry ice/ethanol and stored in −80° C. until use. […] Bound and free [^35S]GTPγS were separated by filtration with GF/B filters under reduced pressure. Radioactivity on filters was determined by liquid scintillation counting. Nonspecific binding was subtracted from total stimulated and basal binding. […] MOPR activity was reported as % of baseline (unstimulated) activity: [Disintegrations per minute (DPM) with agonist stimulated binding−DPM of nonspecific binding)/(DPM basal (without agonist)−DPM nonspecific)×100. Protein content of membranes was determined by the BCA method of^24 with bovine serum albumin as the standard.
On the technique in general: GTPγS is a poorly hydrolysed GTP analogue; its binding reports G protein activation.

The conditions of data set [2]: cited from earlier work.
A further data set has as its system healthy human volunteers. Particulars: studies that evaluated detection/likeability (Kollins et al., 2001); cited from earlier work.
For a further data set, the system named is rats. Particulars: 0.5 mg/kg MPH, rats (Paine et al., 2007); cited from earlier work.
The test system of another data set is Adult C57BL/6 mice. Kind of data set: Conditioned place preference (CPP). Particulars: for MPH-induced place preference / CPP score compared to the saline group: naltrexone 10 mg/kg (highest dose) prior to MPH 7.5 mg/kg; for place preference (CPP): naltrexone 1 or 10 mg/kg alone; for effect on high dose MPH-induced CPP (rewarding effects): naltrexone prior to MPH, naltrexone dose not stated. The class given is in vivo. The procedure: Photobeams wired to a computer can record animal location (time spent in the chamber). The central chamber has a smooth floor with gray color. Each preference chamber is either white with a mesh floor or black with a bar floor. The CPP procedure included three phases. (1) The pre-conditioning phase was performed on day 1 (two sessions daily, AM and PM). In each preconditioning session, mice were initially placed in the central gray chamber for 2 min and then allowed free access to the white and black chambers for 20 min. The time spent in each chamber was recorded. […] (2) The conditioning phase was carried out on each of days 2 to 6 [two sessions daily, AM and PM one each for vehicle-paired (saline as vehicle) and drug-paired (cocaine or MPH as drugs) sessions]. In the vehicle-paired session mice were injected with saline (i.p.) and placed in the central gray chamber for 2 min (to isolate injection effect to the central chamber) and then confined to the vehicle-paired chamber for 30 min. In the drug-paired session, the mice were given the drug in the central chamber, retained there for 2 min and then confined for 30 min in the drug-paired chamber. […] The time spent in each chamber was recorded. The difference between time spent in the drug-paired chamber during the test phase and pre-conditioning phases was calculated as the CPP score.

The subject of data set [3] is frontal cortical dopamine levels. Particulars: cited from earlier work.
A further data set relates to mice. Kind of data set: Locomotor activity measured during the CPP assay. The data set is classed as in vivo. Particulars: for MPH-induced increase in locomotor activity: naltrexone 1, 5 or 10 mg/kg 30 min prior to MPH 7.5 mg/kg. The method, then:
In control groups, saline or naltrexone at each of the doses was administered alone (without MPH).

Data set [4] concerns the target T1, μ opioid receptor (MOPR). The data set can be described thus: DAMGO-stimulated [35S]GTPγS binding (MOPR activity) in caudate-putamen and nucleus accumbens membranes of drug-treated mice from the CPP assay. The class given is in vivo. Particulars: for MOPR activity (DAMGO-stimulated [35S]GTPγS binding) compared to saline: caudate-putamen and nucleus accumbens, 10 μM DAMGO. The method, then:
as §1

[5] abbreviates: 0.75 mg/kg dose (Balcioglu et al., 2009).
[6] abbreviates: MPH 7.5 mg/kg vs cocaine 10 mg/kg.
Setting [7] is: naltrexone 1, 5 or 10 mg/kg prior to MPH 7.5 mg/kg.

T1 sequence (P42866 whole entry): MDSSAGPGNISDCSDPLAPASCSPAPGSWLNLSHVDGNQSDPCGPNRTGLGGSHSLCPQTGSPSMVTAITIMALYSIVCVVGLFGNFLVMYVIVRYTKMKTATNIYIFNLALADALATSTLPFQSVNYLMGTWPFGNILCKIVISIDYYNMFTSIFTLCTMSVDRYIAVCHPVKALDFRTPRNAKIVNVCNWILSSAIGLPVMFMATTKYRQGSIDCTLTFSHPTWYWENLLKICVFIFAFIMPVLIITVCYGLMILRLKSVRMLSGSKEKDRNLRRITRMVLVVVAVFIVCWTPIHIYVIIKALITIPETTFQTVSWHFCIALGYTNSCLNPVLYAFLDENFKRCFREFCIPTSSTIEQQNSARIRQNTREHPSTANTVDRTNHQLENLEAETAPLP

For `CC(N)Cc1ccccc1` (stereo not drawn) [Amphetamine], in the data set with KOPR, the “KOPR signaling in the nucleus accumbens” value was “modulates KOPR signaling in the nucleus accumbens in a region-specific manner”.

As for `C[C@@H](NC(=O)[C@@H](N)Cc1ccc(O)cc1)C(=O)NCC(=O)N(C)[C@@H](Cc1ccccc1)C(=O)NCCO` [DAMGO], the “concentration at which maximal [35S]GTPγS binding was reached” value at μ opioid receptor (MOPR) [1] came to 10 µM. Moreover, the “maximal [35S]GTPγS binding” value on μ opioid receptor (MOPR) [1] (at 10 μM DAMGO) is recorded as 1.75 fold of the basal level.

As to `COC(=O)C(c1ccccc1)C1CCCCN1` (stereo not drawn) [MPH, Methylphenidate], the “serum and brain concentrations of d-methylphenidate” value in data set [2] (0.75 mg/kg MPH, adult mice (ref. 19)) is “equivalent to its serum and brain (estimated) concentrations in ADHD patients taking therapeutic doses of MPH”. In [2] (setting [5]), the “clinically relevant serum levels of D-MPH” value is 6 to 10 ng/mL. Further, the “time brain levels remain high” value in data set [2] (setting [5]) is given as ~30 min. For the same molecule, in data set [2] (setting [5]), the “time to reach clinically relevant serum levels of D-MPH” value is ≤ 15 min. The “studies reporting subjective responses to oral MPH” value with healthy human volunteers was 18 (72%) of 25 studies. Besides, in the data set on rats, the “accuracy in 5-CSRT assay” value was “increased accuracy”. Besides, the “place preference: time spent in the drug-paired chamber, test vs pre-conditioning sessions” value in the data set on Adult C57BL/6 mice (MPH 0.75 mg/kg (low, therapeutic dose) i.p.) is reported as “did not; also recorded: neither induce place preference; also recorded: do not; also recorded: no statistically significant difference”; with Adult C57BL/6 mice (MPH 7.5 mg/kg (high, supra-therapeutic dose) i.p., alone) it was “showed significant place preference; also recorded: induced CPP; also recorded: produce CPP; also recorded: induce place preference; also recorded: produce place preference; also recorded: spent significantly longer period of time in the drug-paired chamber; also recorded: produced significant increase”. Besides, in the data set with Adult C57BL/6 mice (MPH 7.5 mg/kg i.p.), the “CPP score compared to the saline and low dose MPH groups” value is given as “significantly higher CPP scores”. For the same molecule, in the data set with Adult C57BL/6 mice (setting [6]), the “CPP score, high dose MPH group vs cocaine group” value is reported as “no statistically significant difference”. For the same molecule, the “time after MPH administration at which increases in frontal cortical dopamine levels occur” value in [3] (setting [5]) is ~60 min. Moreover, the “effect on neurotransmitter levels” value in data set [3] (low doses of MPH (literature)) is given as “selectively affect neurotransmitter levels in the frontal cortex”. For the same molecule, the “locomotor activity compared to saline” value in the data set with mice (MPH 0.75 mg/kg) is “no significant effect”; in the data set on mice (MPH 7.5 mg/kg), “significantly increased locomotor activity; also recorded: increased locomotor activity significantly”. At μ opioid receptor (MOPR) [4] (7.5 mg/kg MPH to 25-day old mice for 5 days, expected), the MOPR activity result is given as “MOPR upregulation”. The “MOPR activity (DAMGO-stimulated [35S]GTPγS binding) compared to saline” value on μ opioid receptor (MOPR) [4] (MPH 0.75 mg/kg i.p.) is given as “did not produce significant enhancements”; at μ opioid receptor (MOPR) [4] (MPH 7.5 mg/kg i.p.), “significantly greater; also recorded: activate MOPR; also recorded: upregulation of striatal MOPR; also recorded: upregulate MOPR activity; also recorded: significantly higher MOPR activity”. The “MOPR activity, high dose MPH group vs cocaine group” value on μ opioid receptor (MOPR) [4] (setting [6]) is given as “no significant difference”.

With `O=C1CC[C@@]2(O)[C@H]3Cc4ccc(O)c5c4[C@@]2(CCN3CC2CC2)[C@H]1O5` [naltrexone], in the data set with Adult C57BL/6 mice (7.5 mg/kg MPH, preliminary findings), the “naltrexone dose needed to block reinforcing properties of MPH” value is “at least 5 mg/kg”. Also, in the data set on Adult C57BL/6 mice, the “MPH-induced place preference / CPP score compared to the saline group” value is recorded as “not significantly different from that for the saline group”, the “place preference (CPP)” value is “did not induce CPP” and the “effect on high dose MPH-induced CPP (rewarding effects)” value is “can significantly attenuate rewarding effects of MPH”. Further, in the data set on Adult C57BL/6 mice (listed as Naltrexone), the “MPH-induced place preference / CPP score compared to the saline group” value was “blocking it completely”, the “place preference (CPP)” value was “did not affect CPP” and the “effect on high dose MPH-induced CPP (rewarding effects)” value is given as “prevents MPH-induced CPP; also recorded: attenuates high dose MPH-induced place preference”. For the same molecule, the “time spent in the drug-paired chamber, PC vs Test sessions” value in the data set on Adult C57BL/6 mice (naltrexone 1, 5 or 10 mg/kg administered prior to MPH 7.5 mg/kg) is “significant difference between PC and Test sessions”. Also, in the data set on Adult C57BL/6 mice (setting [7]), the “CPP score compared to MPH administered alone” value is “significantly decreased the CPP score” and the “dose dependence of the decrease in the CPP score” value was “dose-dependent”. Besides, the “MPH-induced CPP / CPP score compared to MPH administered alone” value with Adult C57BL/6 mice (naltrexone 5 or 10 mg/kg 30 min prior to MPH 7.5 mg/kg) is listed as “significantly lower; also recorded: blocks MPH-induced conditioned place preference (CPP)”. In the data set with mice, the “MPH-induced increase in locomotor activity” value is on record as “not affected”. Further, the “MPH-induced increase in locomotor activity” value in the data set on mice (listed as Naltrexone) is “did not block the MPH-induced increases in locomotor activity”. For the same molecule, the locomotor activity result with mice (naltrexone 1, 5 or 10 mg/kg alone) is “did not affect locomotor activity”.

For `CCN1CCC[C@H]1CNC(=O)c1c(O)c(Cl)cc(Cl)c1OC` [raclopride], in the data set with Adult C57BL/6 mice (MPH 7.5 mg/kg + raclopride), the “CPP score compared to the MPH only group” value is “did not show significant differences”.
